ChEMBL document CHEMBL1201862, “PubChem BioAssay data set” (2004)
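These data come from cells grown in 96-well plates and exposed to compound for 48 hours at five concentrations. GI50 marks 50% less growth.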 Activity calls are given as the source filed them. Rule as the data show it: active = GI50 up to about 1.1 µM and inactive = higher.

What was measured:
Experiment in all cases: inhibition of tumour cell growth, NCI panel, 48 h
HOP-92 = system: HOP-92
SNB-19 = system: SNB-19
SW-620 = system: SW-620
OVCAR-5 = system: OVCAR-5
RPMI-8226 = system: RPMI-8226
EKVX = system: EKVX
SK-MEL-2 = system: SK-MEL-2
COLO 205 = system: COLO 205
786-0 = system: 786-0
SK-MEL-5 = system: SK-MEL-5
A498 = system: A498
UACC-257 = system: UACC-257
SR = system: SR
MDA-MB-231 = system: MDA-MB-231
UO-31 = system: UO-31
LOX IMVI = system: LOX IMVI
CCRF-CEM = system: CCRF-CEM
RXF 393 = system: RXF 393
A549 = system: A549
Malme-3M = system: Malme-3M
HCT-116 = system: HCT-116
SNB-75 = system: SNB-75
UACC-62 = system: UACC-62
OVCAR-4 = system: OVCAR-4
NCI-H460 = system: NCI-H460
HT-29 = system: HT-29
CAKI-1 = system: CAKI-1
NCI-H226 = system: NCI-H226
IGROV-1 = system: IGROV-1
MCF7 = system: MCF7
SN12C = system: SN12C
DU-145 = system: DU-145
TK-10 = system: TK-10
T47D = system: T47D
OVCAR-8 = system: OVCAR-8
HL-60 = system: HL-60
SK-MEL-28 = system: SK-MEL-28
U-251 = system: U-251
SF-539 = system: SF-539
SF-268 = system: SF-268
HCC 2998 = system: HCC 2998
NCI/ADR-RES = system: NCI/ADR-RES
BT-549 = system: BT-549
SK-OV-3 = system: SK-OV-3
HCT-15 = system: HCT-15
MDA-N = system: MDA-N
M14 = system: M14
K562 = system: K562
HOP-62 = system: HOP-62
NCI-H522 = system: NCI-H522
NCI-H23 = system: NCI-H23
MOLT-4 = system: MOLT-4
ACHN = system: ACHN
Hs-578T = system: Hs-578T
OVCAR-3 = system: OVCAR-3
PC-3 = system: PC-3
MDA-MB-435 = system: MDA-MB-435
SF-295 = system: SF-295
KM12 = system: KM12

Measured: GI50

CCCC(=O)O[C@H]1C=C2C[C@@]34SS[C@]5(CC6=C[C@H](OC(C)=O)[C@@H]7O[C@@H]7[C@H]6N5C3=O)C(=O)N4[C@@H]2[C@H]2O[C@H]21
active: HOP-92 0.02 µM | SNB-19 0.0126 µM | SW-620 0.00548 µM | OVCAR-5 0.0112 µM | RPMI-8226 0.00524 µM | EKVX 0.0178 µM | SK-MEL-2 0.0552 µM | COLO 205 0.0137 µM | 786-0 < 0.005 µM | SK-MEL-5 0.12 µM | A498 0.0279 µM | UACC-257 0.0181 µM | SR < 0.005 µM | MDA-MB-231 0.0254 µM | UO-31 0.059 µM | LOX IMVI 0.0208 µM | CCRF-CEM 0.0116 µM | RXF 393 0.0205 µM | A549 0.0311 µM | Malme-3M 0.02 µM | HCT-116 0.00847 µM | SNB-75 0.0353 µM | UACC-62 0.0225 µM | OVCAR-4 0.0197 µM | NCI-H460 0.0218 µM | HT-29 0.00569 µM | CAKI-1 0.0175 µM | NCI-H226 0.0766 µM | IGROV-1 0.0168 µM | MCF7 0.0132 µM | SN12C 0.00567 µM | DU-145 0.0356 µM | TK-10 0.0347 µM | T47D 0.0256 µM | OVCAR-8 0.00644 µM | HL-60 0.0644 µM | SK-MEL-28 0.0251 µM | U-251 0.00822 µM | SF-539 0.0194 µM | SF-268 0.00775 µM | HCC 2998 0.00923 µM | NCI/ADR-RES 0.0128 µM | BT-549 0.021 µM | SK-OV-3 0.0569 µM | MDA-N 0.00817 µM | M14 0.0129 µM | K562 0.00923 µM | HOP-62 0.01 µM | NCI-H522 < 0.005 µM | NCI-H23 0.0241 µM | MOLT-4 0.00904 µM | ACHN 0.0186 µM | Hs-578T 0.0203 µM | OVCAR-3 0.00738 µM | PC-3 0.0199 µM | MDA-MB-435 0.0127 µM | SF-295 0.329 µM | KM12 0.184 µM
0.0224 µM: HCT-15

CC(C)(C)c1ccc(-n2c3nc(=O)n(-c4ccccc4CO)c(=O)c-3cc3ccccc32)cc1
48.4 µM: HCT-15
inactive: HOP-92 36.8 µM | SNB-19 74.8 µM | SW-620 39.2 µM | OVCAR-5 > 100 µM | EKVX 48.9 µM | SK-MEL-2 > 10 µM | COLO 205 46.5 µM | 786-0 87.1 µM | SK-MEL-5 38.9 µM | A498 > 100 µM | UACC-257 30.5 µM | SR 30.5 µM | MDA-MB-231 19.9 µM | UO-31 42.1 µM | LOX IMVI 20.5 µM | CCRF-CEM 38.1 µM | RXF 393 22.8 µM | A549 76.2 µM | Malme-3M > 100 µM | HCT-116 38.4 µM | SNB-75 26.2 µM | UACC-62 26.8 µM | OVCAR-4 49 µM | NCI-H460 38.9 µM | HT-29 26.6 µM | CAKI-1 > 100 µM | NCI-H226 28 µM | IGROV-1 71.9 µM | MCF7 65.6 µM | SN12C 57.7 µM | DU-145 42.4 µM | TK-10 61.5 µM | T47D 50 µM | OVCAR-8 55.3 µM | HL-60 23.8 µM | SK-MEL-28 38.7 µM | U-251 55.6 µM | SF-539 30.5 µM | SF-268 40.6 µM | HCC 2998 38 µM | NCI/ADR-RES 50 µM | BT-549 38.4 µM | MDA-N 22.2 µM | M14 42.8 µM | K562 45.7 µM | NCI-H522 32.7 µM | NCI-H23 53.1 µM | MOLT-4 16.1 µM | ACHN 69.7 µM | Hs-578T 64.3 µM | PC-3 39.7 µM | MDA-MB-435 36.1 µM | SF-295 41.1 µM | KM12 37.7 µM

COc1cc(CNNC(N)=S)cc(OC)c1OC
> 100 µM: HCT-15
inactive: HOP-92 3.46 µM | SNB-19 > 100 µM | SW-620 > 100 µM | OVCAR-5 95.1 µM | RPMI-8226 > 100 µM | EKVX > 100 µM | COLO 205 > 100 µM | 786-0 > 100 µM | SK-MEL-5 > 100 µM | A498 > 100 µM | UACC-257 > 100 µM | SR > 100 µM | MDA-MB-231 > 100 µM | UO-31 > 100 µM | LOX IMVI > 100 µM | CCRF-CEM > 100 µM | RXF 393 > 100 µM | A549 > 100 µM | Malme-3M > 100 µM | HCT-116 > 100 µM | SNB-75 > 100 µM | NCI-H460 > 100 µM | HT-29 > 100 µM | CAKI-1 6.27 µM | NCI-H226 > 100 µM | IGROV-1 > 100 µM | MCF7 > 100 µM | SN12C > 100 µM | DU-145 > 100 µM | TK-10 > 100 µM | T47D 7.03 µM | OVCAR-8 > 100 µM | HL-60 > 100 µM | SK-MEL-28 > 100 µM | U-251 > 100 µM | SF-539 > 100 µM | SF-268 > 100 µM | HCC 2998 > 100 µM | NCI/ADR-RES > 100 µM | BT-549 22.3 µM | MDA-N > 100 µM | M14 > 100 µM | K562 > 100 µM | HOP-62 90.6 µM | NCI-H522 > 100 µM | NCI-H23 > 100 µM | MOLT-4 > 100 µM | ACHN > 100 µM | Hs-578T > 100 µM | OVCAR-3 > 100 µM | PC-3 > 100 µM | MDA-MB-435 > 100 µM | SF-295 > 100 µM | KM12 > 100 µM

CC(C)(/N=N/C(C)(C)C(=O)NCCO)C(=O)NCCO
> 100 µM: HCT-15
inactive: HOP-92 > 100 µM | SNB-19 > 100 µM | SW-620 > 100 µM | OVCAR-5 > 100 µM | RPMI-8226 > 100 µM | EKVX > 100 µM | SK-MEL-2 > 100 µM | COLO 205 > 100 µM | 786-0 > 100 µM | SK-MEL-5 > 100 µM | A498 > 100 µM | UACC-257 > 100 µM | SR > 100 µM | MDA-MB-231 > 100 µM | UO-31 > 100 µM | LOX IMVI > 100 µM | CCRF-CEM > 100 µM | RXF 393 > 100 µM | A549 > 100 µM | Malme-3M > 100 µM | HCT-116 > 100 µM | UACC-62 > 100 µM | OVCAR-4 > 100 µM | NCI-H460 > 100 µM | HT-29 > 100 µM | CAKI-1 > 100 µM | NCI-H226 > 100 µM | IGROV-1 > 100 µM | MCF7 > 100 µM | SN12C > 100 µM | DU-145 > 100 µM | TK-10 > 100 µM | T47D > 100 µM | OVCAR-8 > 100 µM | HL-60 > 100 µM | SK-MEL-28 > 100 µM | U-251 > 100 µM | SF-539 > 100 µM | SF-268 > 100 µM | HCC 2998 > 100 µM | NCI/ADR-RES > 100 µM | BT-549 > 100 µM | SK-OV-3 > 100 µM | MDA-N > 100 µM | M14 > 100 µM | K562 > 100 µM | HOP-62 > 100 µM | NCI-H522 39.7 µM | NCI-H23 > 100 µM | MOLT-4 > 100 µM | ACHN > 100 µM | Hs-578T > 100 µM | OVCAR-3 > 100 µM | PC-3 > 100 µM | MDA-MB-435 > 100 µM | SF-295 > 100 µM | KM12 > 100 µM
